Assays:
[1] = anticoagulation monitoring (anti-FIIa activity) after oral dabigatran in mice; assay type: in vivo; conditions: oral administration of 1 mg/g body weight dabigatran
Experimental: The in-vivo antidote properties of aptathrombin were studied in a mouse model after oral administration of 1 mg/g body weight dabigatran.

[2] = humans, after dabigatran administration; cited from earlier work

In the case of “N-[2-(4-Aminoiminomethylphenylamino)-1-methyl-1H-benzimidazol-5-ylcarbonyl]-N-(2-pyridyl)-beta-alanine [dabigatran]”, the “time to peak level of anti-FIIa activities” value [1] is listed as 3 to 4 h, the “plasma concentration, upper limit of the peak level” value [2] is listed as 0.28 µg/mL and the “time at which peak level is reached” value [2] is listed as 2 to 4 h.

Source: patent publication EP2980218A1, “Aptamer thrombin complex for use as an antidote to direct acting thrombin inhibitors” (Rheinische Friedrich-Wilhelms-Universität Bonn, priority 2014, dated 2016)
